Measurements: patent publication US6756509B2, “Method for purifying crude 2,6-naphthalenedicarboxylic acid” (Kobe Steel, Ltd., priority 2001, dated 2004)

How the values were obtained:
[1] = solubility in water at room temperature; format: physicochemical
Description: Preferably, the reduction reaction is performed at a temperature in the range of 280 to 350° C. […] In addition, in order to maintain the liquid phase at a high temperature in the range described above, the pressure must be the saturated vapor pressure or higher (150 to 250 atm). Fortunately, using hydrogen dissolved in water prevents the equipment from deteriorating. Specifically, if hydrogen gas is supplied to a water medium containing 2,6-NDA, the hydrogen gas is used at such a high temperature and high pressure, consequently making the reactor brittle. In order to prevent the embrittlement, pressure-resistant equipment, which is expensive, is required.

[2] = solubility in alcohol at room temperature

| solubility in water [1] | solubility in alcohols ([2]; any alcohols) | amount that dissolves in ethanol ([2]; ethanol) | Compound |
| --- | --- | --- | --- |
| slightly soluble or insoluble | hardly dissolves | – | O=C(O)c1ccc2cc(C(=O)O)ccc2c1 [2,6-NDA, 2,6-naphthalenedicarboxylic acid] |
| – | – | 10 mass % | O=C(O)c1ccc2ccccc2c1 [2-NA, 2-naphthoic acid] |
